Measured values reported in patent publication US10131702B2, “Glucagon-GLP-1-GIP triple agonist compounds” (priority 2013, dated 2018).
pEC50: −log10 of the molar value. Read-outs that look alike come from different tables or passages of the source. Numbered stars: 1 amine (or outer) side, 2 acyl side, 3 side chain; on linkers, the order of the positions; unused ones are H or OH. Square brackets hold non-standard residues; d marks the D form. Side chains are listed from the residue outwards. Peptide text beside a SMILES is read from it. * marks the point of attachment. C18 diacid = O=C(O)CCCCCCCCCCCCCCCCC(=O)*; γGlu = O=C(O)[C@H](CCC(=O)[*:2])N[*:1]; Stearoyl = CCCCCCCCCCCCCCCCCC(=O)*; AEEA = NCCOCCOCC(=O)O; Aib = CC(C)(N)C(=O)O

Columns and labels:
Assay type in all cases: cell-based
human GIP R = target: T1, human GIP R (Homo sapiens, UniProt P48546); test: cAMP induction in HEK293 cells expressing human GIP R (AlphaScreen cAMP kit)
T1 construct: expressed in transfected cells
T1 sequence (P48546 22-466): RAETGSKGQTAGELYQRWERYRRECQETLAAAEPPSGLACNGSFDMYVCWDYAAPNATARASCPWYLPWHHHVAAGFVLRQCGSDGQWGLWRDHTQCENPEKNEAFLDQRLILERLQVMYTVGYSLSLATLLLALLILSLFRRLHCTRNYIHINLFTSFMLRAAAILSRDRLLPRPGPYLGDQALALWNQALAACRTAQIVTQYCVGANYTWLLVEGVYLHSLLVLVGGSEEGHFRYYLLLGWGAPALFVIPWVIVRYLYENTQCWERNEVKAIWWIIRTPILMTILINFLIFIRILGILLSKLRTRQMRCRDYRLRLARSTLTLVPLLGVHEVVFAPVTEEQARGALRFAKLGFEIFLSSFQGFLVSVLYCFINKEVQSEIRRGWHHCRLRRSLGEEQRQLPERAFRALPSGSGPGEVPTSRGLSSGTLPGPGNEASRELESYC

human GCG R = target: T2, human GCG R (Homo sapiens, UniProt P47871); test: cAMP induction in HEK293 cells expressing human GCG R (AlphaScreen cAMP kit); settings: for EC50: average EC50, cAMP, HEK293 cells expressing human GCG R, read-out: GCG R (EC50 in nM)
T2 construct: expressed in transfected cells
T2 sequence (P47871 26-477): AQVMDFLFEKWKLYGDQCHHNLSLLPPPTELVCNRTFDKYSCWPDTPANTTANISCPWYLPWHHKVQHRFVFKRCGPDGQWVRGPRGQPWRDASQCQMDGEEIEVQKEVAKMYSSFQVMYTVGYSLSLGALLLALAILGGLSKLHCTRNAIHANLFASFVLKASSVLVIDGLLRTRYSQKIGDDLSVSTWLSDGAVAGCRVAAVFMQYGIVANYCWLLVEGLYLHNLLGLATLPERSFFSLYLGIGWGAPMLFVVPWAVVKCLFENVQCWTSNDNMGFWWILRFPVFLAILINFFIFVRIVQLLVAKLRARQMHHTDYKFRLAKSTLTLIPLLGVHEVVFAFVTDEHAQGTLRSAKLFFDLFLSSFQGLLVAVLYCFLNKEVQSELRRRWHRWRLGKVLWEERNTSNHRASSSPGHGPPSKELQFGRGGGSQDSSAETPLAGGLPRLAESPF

human GLP-1 R = target: T3, human GLP-1 R (Homo sapiens, UniProt P43220); test: cAMP induction in HEK293 cells expressing human GLP-1 R (AlphaScreen cAMP kit); settings: for EC50: average EC50, cAMP, HEK293 cells expressing human GLP-1 R, read-out: GLP1 R (EC50 in nM)
T3 construct: expressed in transfected cells
T3 sequence (P43220 24-463): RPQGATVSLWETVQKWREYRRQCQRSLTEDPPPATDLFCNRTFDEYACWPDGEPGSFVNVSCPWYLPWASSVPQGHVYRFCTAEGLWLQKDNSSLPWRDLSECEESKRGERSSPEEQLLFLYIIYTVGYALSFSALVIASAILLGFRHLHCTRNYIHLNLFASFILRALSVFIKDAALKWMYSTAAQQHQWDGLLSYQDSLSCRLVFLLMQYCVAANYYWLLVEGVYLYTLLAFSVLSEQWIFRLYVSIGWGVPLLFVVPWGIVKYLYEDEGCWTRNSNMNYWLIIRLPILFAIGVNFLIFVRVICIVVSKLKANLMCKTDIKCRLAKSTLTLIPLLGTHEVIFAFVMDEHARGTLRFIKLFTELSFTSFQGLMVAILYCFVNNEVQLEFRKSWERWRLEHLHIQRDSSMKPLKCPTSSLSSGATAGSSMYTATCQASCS

[1] = Table 2, average EC50, cAMP, read-out: GIP R (EC50 in nM)
[2] = Table 2b (most comprehensive data), average EC50, cAMP, read-out: GIP R (EC50 in nM)
[3] = Table 2b (most comprehensive data)
[4] = GIP R (EC50 in nM), Table 2, average EC50, cAMP

SMILES	EC50 (human GIP R; [1]) [nM]	EC50 (human GCG R; Table 2) [nM]	EC50 (human GLP-1 R; Table 2) [nM]	EC50 (human GIP R; [2]) [nM]	EC50 (human GCG R; [3]) [nM]	EC50 (human GLP-1 R; [3]) [nM]	pEC50 (human GLP-1 R)	EC50 (human GIP R; [4]) [nM]	pEC50 (human GCG R)	EC50 (human GIP R; GIP R (EC50 in nM), Table 2b (most comprehensive data), average EC50, cAMP) [nM]
CCCCCCCCCCCCCCCC(=O)N[C@@H](CCC(=O)NCCCC[C@H](NC(=O)[C@H](CCCCN)NC(=O)[C@H](CCC(=O)O)NC(=O)[C@H](CC(C)C)NC(=O)[C@H](Cc1ccc(O)cc1)NC(=O)[C@@H](NC(=O)[C@H](CO)NC(=O)[C@H](Cc1ccc(O)cc1)NC(=O)[C@H](CC(=O)O)NC(=O)[C@H](CO)NC(=O)[C@@H](NC(=O)[C@H](Cc1ccccc1)NC(=O)[C@@H](NC(=O)CNC(=O)[C@H](CCC(N)=O)NC(=O)C(C)(C)NC(=O)[C@@H](N)Cc1ccc(O)cc1)[C@@H](C)O)[C@@H](C)O)[C@@H](C)CC)C(=O)N[C@@H](C)C(=O)N[C@@H](C)C(=O)N[C@@H](CCCCN)C(=O)N[C@@H](CCC(=O)O)C(=O)N[C@@H](Cc1ccccc1)C(=O)N[C@H](C(=O)N[C@@H](CCC(=O)O)C(=O)N[C@@H](Cc1c[nH]c2ccccc12)C(=O)N[C@@H](CC(C)C)C(=O)N[C@@H](CC(C)C)C(=O)N[C@@H](CO)C(=O)N[C@@H](C)C(N)=O)C(C)C)C(=O)O [Compound 23] (HELM PEPTIDE1{Y.[Aib].Q.G.T.F.T.S.D.Y.S.I.Y.L.E.K.K.A.A.K.E.F.V.E.W.L.L.S.A.[am]}|PEPTIDE2{[CCCCCCCCCCCCCCCC(=O)[*:2]].[gGlu]}$PEPTIDE1,PEPTIDE2,17:R3-2:R2$$$V2.0)	0.13	0.14	0.11							
CCCCCCCCCCCCCCCCCC(=O)N[C@@H](CCC(=O)NCCOCCOCC(=O)NCCOCCOCC(=O)NCCCC[C@H](NC(=O)[C@H](CCCCN)NC(=O)[C@H](CC(=O)O)NC(=O)[C@H](CC(C)C)NC(=O)[C@H](Cc1ccc(O)cc1)NC(=O)[C@@H](NC(=O)[C@H](CO)NC(=O)[C@H](Cc1ccc(O)cc1)NC(=O)[C@H](CC(=O)O)NC(=O)[C@H](CO)NC(=O)[C@@H](NC(=O)[C@H](Cc1ccccc1)NC(=O)[C@@H](NC(=O)CNC(=O)[C@H](CCC(N)=O)NC(=O)C(C)(C)NC(=O)[C@@H](N)Cc1ccc(O)cc1)[C@@H](C)O)[C@@H](C)O)[C@@H](C)CC)C(=O)N[C@@H](C)C(=O)N[C@@H](CCC(N)=O)C(=O)N[C@@H](CCCNC(=N)N)C(=O)N[C@@H](C)C(=O)N[C@@H](Cc1ccccc1)C(=O)N[C@H](C(=O)N[C@@H](CCC(=O)O)C(=O)N[C@@H](Cc1c[nH]c2ccccc12)C(=O)N[C@@H](CC(C)C)C(=O)N[C@@H](CC(C)C)C(=O)N[C@@H](C)C(=O)N[C@@H](CCC(N)=O)C(=O)NCC(=O)N1CCC[C@H]1C(=O)N[C@@H](CO)C(=O)N[C@@H](CO)C(=O)NCC(=O)N[C@@H](C)C(=O)N1CCC[C@H]1C(=O)N1CCC[C@H]1C(=O)N1CCC[C@H]1C(=O)N[C@@H](CO)C(N)=O)C(C)C)C(=O)O [Compound 35] (H-Y[Aib]QGTFTSDYSIYLDKK([AEEA-AEEA-γGlu-Stearoyl])AQRAFVEWLLAQGPSSGAPPPS-NH2)				0.012	0.011	1.85				
CCCCCCCCCCCCCCCC(=O)N[C@@H](CCC(=O)NCCCC[C@H](NC(=O)[C@H](CO)NC(=O)[C@H](CC(=O)O)NC(=O)[C@H](CC(C)C)NC(=O)[C@H](Cc1ccc(O)cc1)NC(=O)[C@@H](NC(=O)[C@H](CO)NC(=O)[C@H](Cc1ccc(O)cc1)NC(=O)[C@H](CC(=O)O)NC(=O)[C@H](CO)NC(=O)[C@@H](NC(=O)[C@H](Cc1ccccc1)NC(=O)[C@@H](NC(=O)CNC(=O)[C@H](CCC(N)=O)NC(=O)C(C)(C)NC(=O)[C@@H](N)Cc1ccc(O)cc1)[C@@H](C)O)[C@@H](C)O)[C@@H](C)CC)C(=O)N[C@@H](C)C(=O)N[C@@H](C)C(=O)N[C@@H](Cc1c[nH]cn1)C(=O)N[C@@H](CC(=O)O)C(=O)N[C@@H](Cc1ccccc1)C(=O)N[C@H](C(=O)N[C@@H](CCC(=O)O)C(=O)N[C@@H](Cc1c[nH]c2ccccc12)C(=O)N[C@@H](CC(C)C)C(=O)N[C@@H](CC(C)C)C(=O)N[C@@H](CO)C(=O)N[C@@H](C)C(=O)NCC(=O)N1CCC[C@H]1C(=O)N[C@@H](CO)C(=O)N[C@@H](CO)C(=O)NCC(=O)N[C@@H](C)C(=O)N1CCC[C@H]1C(=O)N1CCC[C@H]1C(=O)N1CCC[C@H]1C(=O)N[C@@H](CO)C(N)=O)C(C)C)C(=O)O [Compound 29] (HELM PEPTIDE1{Y.[Aib].Q.G.T.F.T.S.D.Y.S.I.Y.L.D.S.K.A.A.H.D.F.V.E.W.L.L.S.A.G.P.S.S.G.A.P.P.P.S.[am]}|PEPTIDE2{[CCCCCCCCCCCCCCCC(=O)[*:2]].[gGlu]}$PEPTIDE1,PEPTIDE2,17:R3-2:R2$$$V2.0)	0.06	0.15		0.05		0.15	10.30			
CC[C@H](C)[C@H](NC(=O)[C@H](CO)NC(=O)[C@H](Cc1ccc(O)cc1)NC(=O)[C@H](CC(=O)O)NC(=O)[C@H](CO)NC(=O)[C@@H](NC(=O)[C@H](Cc1ccccc1)NC(=O)[C@@H](NC(=O)CNC(=O)[C@H](CCC(N)=O)NC(=O)C(C)(C)NC(=O)[C@@H](N)Cc1ccc(O)cc1)[C@@H](C)O)[C@@H](C)O)C(=O)N[C@@H](Cc1ccc(O)cc1)C(=O)N[C@@H](CC(C)C)C(=O)N[C@@H](CC(=O)O)C(=O)N[C@@H](CCCCN)C(=O)N[C@@H](CCCCNC(=O)COCCOCCNC(=O)COCCOCCNC(=O)CC[C@H](NC(=O)CCCCCCCCCCCCCCCCC(=O)O)C(=O)O)C(=O)N[C@@H](C)C(=O)N[C@@H](CCC(N)=O)C(=O)N[C@@H](CCCNC(=N)N)C(=O)N[C@@H](C)C(=O)N[C@@H](Cc1ccccc1)C(=O)N[C@H](C(=O)N[C@@H](CCC(=O)O)C(=O)N[C@@H](Cc1c[nH]c2ccccc12)C(=O)N[C@@H](CC(C)C)C(=O)N[C@@H](CC(C)C)C(=O)N[C@@H](C)C(=O)N[C@@H](CCC(N)=O)C(=O)NCC(=O)N1CCC[C@H]1C(=O)N[C@@H](CO)C(=O)N[C@@H](CO)C(=O)NCC(=O)N[C@@H](C)C(=O)N1CCC[C@H]1C(=O)N1CCC[C@H]1C(=O)N1CCC[C@H]1C(=O)N[C@@H](CO)C(N)=O)C(C)C [Compound 33] (H-Y[Aib]QGTFTSDYSIYLDKK([AEEA-AEEA-γGlu-C18 diacid])AQRAFVEWLLAQGPSSGAPPPS-NH2)				0.009	0.58	0.114				
CC(C)C[C@H](NC(=O)[C@H](C)NC(=O)[C@H](CCCCN)NC(=O)[C@H](CO)NC(=O)[C@H](Cc1ccc(O)cc1)NC(=O)[C@H](CC(=O)O)NC(=O)[C@H](CO)NC(=O)[C@@H](NC(=O)[C@H](Cc1ccccc1)NC(=O)[C@@H](NC(=O)CNC(=O)[C@H](CCC(N)=O)NC(=O)C(C)(C)NC(=O)[C@@H](N)Cc1ccc(O)cc1)[C@@H](C)O)[C@@H](C)O)C(=O)N[C@@H](CC(=O)O)C(=O)N[C@@H](CO)C(=O)N[C@@H](CCCCN)C(=O)N[C@@H](C)C(=O)N[C@@H](C)C(=O)N[C@@H](Cc1c[nH]cn1)C(=O)N[C@@H](CC(=O)O)C(=O)N[C@@H](Cc1ccccc1)C(=O)N[C@H](C(=O)N[C@@H](CCC(=O)O)C(=O)N[C@@H](Cc1c[nH]c2ccccc12)C(=O)N[C@@H](CC(C)C)C(=O)N[C@@H](CC(C)C)C(=O)N[C@@H](CO)C(=O)N[C@@H](C)C(N)=O)C(C)C [Compound 7] (HELM PEPTIDE1{Y.[Aib].Q.G.T.F.T.S.D.Y.S.K.A.L.D.S.K.A.A.H.D.F.V.E.W.L.L.S.A.[am]}$$$$V2.0)			0.031					0.42	10.07	
CC[C@H](C)[C@H](NC(=O)[C@H](CO)NC(=O)[C@H](Cc1ccc(O)cc1)NC(=O)[C@H](CC(=O)O)NC(=O)[C@H](CO)NC(=O)[C@@H](NC(=O)[C@H](Cc1ccccc1)NC(=O)[C@@H](NC(=O)CNC(=O)[C@H](CCC(N)=O)NC(=O)C(C)(C)NC(=O)[C@@H](N)Cc1ccc(O)cc1)[C@@H](C)O)[C@@H](C)O)C(=O)N[C@@H](Cc1ccc(O)cc1)C(=O)N[C@@H](CC(C)C)C(=O)N[C@@H](CC(=O)O)C(=O)N[C@@H](CCCCN)C(=O)N[C@@H](CCCCN)C(=O)N[C@@H](C)C(=O)N[C@@H](C)C(=O)N[C@@H](Cc1c[nH]cn1)C(=O)N[C@@H](CC(=O)O)C(=O)N[C@@H](Cc1ccccc1)C(=O)N[C@H](C(=O)N[C@@H](CCC(=O)O)C(=O)N[C@@H](Cc1c[nH]c2ccccc12)C(=O)N[C@@H](CC(C)C)C(=O)N[C@@H](CC(C)C)C(=O)N[C@@H](CO)C(=O)N[C@@H](C)C(N)=O)C(C)C [Compound 19] (HELM PEPTIDE1{Y.[Aib].Q.G.T.F.T.S.D.Y.S.I.Y.L.D.K.K.A.A.H.D.F.V.E.W.L.L.S.A.[am]}$$$$V2.0)			0.013			0.024		0.032	10.62	0.013
